Values joined by “and” are separate entries in the source; they are usually repeats but may differ in a detail not shown here. Equal entries are not always repeated. After the bases stand the sugars from the 5' end (letter, count) and the backbone: PS all phosphorothioate, else s phosphorothioate and o phosphodiester by linkage. Methylation of C is not given here. e = 2'-O-(2-methoxyethyl) (MOE); k = constrained ethyl (cEt); d = 2'-deoxy (DNA)
Target: SOD1
Conditions: ASO

Q: How did the target mRNA inhibition (HepG2, 4 µM) turn out when “CTACGACGCAAACCAGCACC (sugars e5 d10 e5, PS)” was run?
A: The target mRNA inhibition was 19%.

Q: For “TACAGGGTTTTTATTCA (sugars e2 k2 d8 k2 e3, PS)”, which target mRNA inhibition (HepG2, 5 µM) is on record?
A: Its target mRNA inhibition is 13%.

Q: Which target mRNA inhibition (HepG2, 3 µM) does the source give for “CAGACTACATCCAAGGG (sugars e3 k2 d7 k2 e3, PS)” here?
A: Its target mRNA inhibition is 53%.

Q: “AGGTCATTGAAACAGAC (sugars e3 k2 d7 k2 e3, PS)” was tested. Which target mRNA inhibition (HepG2, 3 µM) did it give?
A: Its target mRNA inhibition is 21%.

Q: For “TGGAATCCATGCAGGCC (sugars e3 k2 d7 k2 e3, PS)”, which target mRNA inhibition (HepG2, 3 µM) is on record?
A: Its target mRNA inhibition is 12%.

Q: Which target mRNA inhibition (HepG2, 4 µM) does the source give for “GCGATCCCAATTACACC (sugars e2 k2 d9 k2 e2, PS)” here?
A: Its target mRNA inhibition is 58%.

Q: Which target mRNA inhibition (HepG2, 3 µM) does the source give for “CCCAATTACACCACAAG (sugars e3 k2 d7 k2 e3, PS)” here?
A: Its target mRNA inhibition is 29%.

Q: With “GGCCTCAGACTACATCC (sugars e3 k2 d7 k2 e3, PS)” as the sequence, how does the target mRNA inhibition (HepG2, 3 µM) read?
A: Its target mRNA inhibition is 24%.

Q: Which target mRNA inhibition (HepG2, 3 µM) does the source give for “TTACTTTCCTTCTGCTC (sugars e3 k2 d7 k2 e3, PS)” here?
A: Its target mRNA inhibition is 22%.

Q: For “CCTTCACTGGTCCATTA (sugars e3 k2 d7 k2 e3, PS)”, which target mRNA inhibition (HepG2, 3 µM) is on record?
A: The target mRNA inhibition was 8%.

Q: “TTCATGGACCACCAGTGTGC (sugars e5 d10 e5, PS)” was tested. Which target mRNA inhibition (HepG2, 5 µM) did it give?
A: The target mRNA inhibition was 21%.

Q: With “TAGACACATCGGCCACACCA (sugars e5 d10 e5, PS)” as the sequence, how does the target mRNA inhibition (HepG2, 5 µM) read?
A: The target mRNA inhibition was 46% and 36%.

Q: What does the source list for “GTGTTTAATGTTTATCA (sugars e2 k2 d9 k2 e2, linkages s1 o3 s9 o1 s2)”?
A: target mRNA inhibition (A431, 0.12 µM): 22%; target mRNA inhibition (A431, 0.6 µM): 57%; target mRNA inhibition (A431, 3 µM): 73%; target mRNA inhibition (A431, 15 µM): 84%; target mRNA inhibition (HepG2, 0.222 µM): 58%; target mRNA inhibition (HepG2, 0.667 µM): 68%; target mRNA inhibition (HepG2, 2 µM): 96%; target mRNA inhibition (HepG2, 6 µM): 83%

Q: For “GGTTCCGAGGACTGCAACGG (sugars e5 d10 e5, PS)”, which target mRNA inhibition (HepG2, 4 µM) is on record?
A: Its target mRNA inhibition is 35%.

Q: “GGTTTTTATTCACAGGC (sugars e2 k2 d8 k2 e3, PS)” was tested. Which target mRNA inhibition (HepG2, 5 µM) did it give?
A: The target mRNA inhibition was 38%.

Q: For “AGTGTTTAATGTTTATC (sugars ekekddddddddkekee, linkages s1 o2 s9 o2 s2)”, which target mRNA inhibition (A431, 0.062 µM) is on record?
A: The target mRNA inhibition was 52%.

Q: And the target mRNA inhibition (A431, 0.185 µM)?
A: Its target mRNA inhibition is 68%.

Q: What about the target mRNA inhibition (A431, 0.556 µM) of the same sequence?
A: The target mRNA inhibition was 79%.

Q: And the target mRNA inhibition (A431, 1.667 µM)?
A: The target mRNA inhibition was 88%.

Q: And the target mRNA inhibition (A431, 5 µM)?
A: Its target mRNA inhibition is 89%.

Q: And the target mRNA inhibition (A431, 15 µM)?
A: The target mRNA inhibition was 91%.

Q: And the target mRNA inhibition (SH-SY5Y, 0.062 µM)?
A: Its target mRNA inhibition is 38%.

Q: And the target mRNA inhibition (SH-SY5Y, 0.185 µM)?
A: Its target mRNA inhibition is 49%.

Q: What about the target mRNA inhibition (SH-SY5Y, 0.556 µM) of the same sequence?
A: The target mRNA inhibition was 61%.

Q: And the target mRNA inhibition (SH-SY5Y, 1.667 µM)?
A: Its target mRNA inhibition is 83%.

Q: What about the target mRNA inhibition (SH-SY5Y, 5 µM) of the same sequence?
A: The target mRNA inhibition was 81%.

Q: And the target mRNA inhibition (SH-SY5Y, 15 µM)?
A: The target mRNA inhibition was 84%.

Q: Which target mRNA inhibition (HepG2, 3 µM) does the source give for “TACAGGTCATTGAAACA (sugars e3 k2 d7 k2 e3, PS)” here?
A: Its target mRNA inhibition is 9%.

Q: For “TTAATGTTTATCAGGAT (sugars e2 k2 d9 k2 e2, PS)”, which target mRNA inhibition (HepG2, 0.1875 µM) is on record?
A: The target mRNA inhibition was 43%.

Q: And the target mRNA inhibition (HepG2, 0.75 µM)?
A: The target mRNA inhibition was 78%.

Q: What about the target mRNA inhibition (HepG2, 3 µM) of the same sequence?
A: Its target mRNA inhibition is 93%.

Q: And the target mRNA inhibition (HepG2, 4 µM)?
A: The target mRNA inhibition was 92%.

Q: And the target mRNA inhibition (HepG2, 12 µM)?
A: Its target mRNA inhibition is 98%.

Q: How did the target mRNA inhibition (HepG2, 3 µM) turn out when “GAGGACCTGCACTGGTA (sugars e3 k2 d7 k2 e3, PS)” was run?
A: The target mRNA inhibition was 17%.

Q: For “GTCTCCAACATGCCTCT (sugars e3 k2 d7 k2 e3, PS)”, which target mRNA inhibition (HepG2, 3 µM) is on record?
A: Its target mRNA inhibition is 8%.

Q: How did the target mRNA inhibition (HepG2, 3 µM) turn out when “AGATTACAGTGTTTAAT (sugars e3 k2 d7 k2 e3, PS)” was run?
A: Its target mRNA inhibition is 45%.

Q: How did the target mRNA inhibition (HepG2, 4 µM) turn out when “CCGAGGTCCTGGTTCCGAGG (sugars e5 d10 e5, PS)” was run?
A: Its target mRNA inhibition is 18%.

Q: With “ACAGTGTTTAATGTTTA (sugars e2 k2 d8 k2 e3, PS)” as the sequence, how does the target mRNA inhibition (HepG2, 0.1875 µM) read?
A: The target mRNA inhibition was 39%.

Q: What about the target mRNA inhibition (HepG2, 0.75 µM) of the same sequence?
A: Its target mRNA inhibition is 69%.

Q: And the target mRNA inhibition (HepG2, 3 µM)?
A: The target mRNA inhibition was 82%.

Q: What about the target mRNA inhibition (HepG2, 4 µM) of the same sequence?
A: The target mRNA inhibition was 78%.

Q: What about the target mRNA inhibition (HepG2, 5 µM) of the same sequence?
A: Its target mRNA inhibition is 83%.

Q: And the target mRNA inhibition (HepG2, 12 µM)?
A: The target mRNA inhibition was 84% and 86%.

Q: What does the source list for “GATACATTTCTACAGCTA (sugars e5 d8 e5, linkages s1 o3 s9 o2 s2)”?
A: target mRNA inhibition (A431, 0.12 µM): 7%; target mRNA inhibition (A431, 0.6 µM): 15%; target mRNA inhibition (A431, 3 µM): 39%; target mRNA inhibition (A431, 15 µM): 52%; target mRNA inhibition (HepG2, 0.222 µM): 28%; target mRNA inhibition (HepG2, 0.667 µM): 59%; target mRNA inhibition (HepG2, 2 µM): 73%; target mRNA inhibition (HepG2, 6 µM): 85%

Q: Which target mRNA inhibition (HepG2, 5 µM) does the source give for “AACTATACAAATCTTCC (sugars e2 k2 d8 k2 e3, PS)” here?
A: Its target mRNA inhibition is 60%.

Q: For “ACAGCTAGCAGGATAAC (sugars e2 k2 d9 k2 e2, PS)”, which target mRNA inhibition (HepG2, 0.1875 µM) is on record?
A: Its target mRNA inhibition is 29%.

Q: What about the target mRNA inhibition (HepG2, 0.75 µM) of the same sequence?
A: The target mRNA inhibition was 71%.

Q: What about the target mRNA inhibition (HepG2, 3 µM) of the same sequence?
A: Its target mRNA inhibition is 89%.

Q: What about the target mRNA inhibition (HepG2, 4 µM) of the same sequence?
A: Its target mRNA inhibition is 83%.

Q: And the target mRNA inhibition (HepG2, 12 µM)?
A: Its target mRNA inhibition is 97%.

Q: With “TCTCCAACATGCCTCTC (sugars e3 k2 d7 k2 e3, PS)” as the sequence, how does the target mRNA inhibition (HepG2, 3 µM) read?
A: Its target mRNA inhibition is 10%.

Q: For “CTTTTAAGATTACAGTG (sugars e2 k2 d8 k2 e3, PS)”, which target mRNA inhibition (HepG2, 5 µM) is on record?
A: Its target mRNA inhibition is 62%.

Q: With “TTATTGGGCGATCCCAA (sugars e2 k2 d9 k2 e2, PS)” as the sequence, how does the target mRNA inhibition (HepG2, 4 µM) read?
A: Its target mRNA inhibition is 41%.

Q: For “GATTCTTTTAATAGCCTCAT (sugars e5 d10 e5, PS)”, which target mRNA inhibition (HepG2, 5 µM) is on record?
A: The target mRNA inhibition was 4%.

Q: How did the target mRNA inhibition (HepG2, 0.1875 µM) turn out when “GGCCTCAGACTACATCC (sugars e2 k2 d9 k2 e2, PS)” was run?
A: The target mRNA inhibition was 4%.

Q: And the target mRNA inhibition (HepG2, 0.75 µM)?
A: Its target mRNA inhibition is 50%.

Q: What about the target mRNA inhibition (HepG2, 3 µM) of the same sequence?
A: Its target mRNA inhibition is 68%.

Q: What about the target mRNA inhibition (HepG2, 4 µM) of the same sequence?
A: The target mRNA inhibition was 76%.

Q: And the target mRNA inhibition (HepG2, 12 µM)?
A: The target mRNA inhibition was 86%.

Q: What does the source list for “ACCTCCGCGCCTCGCCCACT (sugars e5 d10 e5, PS)”?
A: target mRNA inhibition (HepG2, 4 µM): 63% and 77%; target mRNA inhibition (HepG2, 12 µM): 92%

From the OligoGym collection
